According to US20250295639A1, “METHODS FOR TREATING HEART DISEASES” (Cytokinetics, Incorporated, priority 2024, published 2025):

Columns and labels:
[1] = test system: patients with symptomatic oHCM; experiment: SEQUOIA-HCM secondary analysis: global remodelling response across five domains; format: in vivo, human
Experimental: SEQUOIA-HCM recruited patients with symptomatic oHCM (New York Heart Association [NYHA]≥class 2, baseline pVO2 of ≤90% of predicted, respiratory exchange ratio [RER] of ≥1.05). Patients were randomized 1:1 to aficamten (5-20 mg daily) or placebo, and doses were adjusted during the first 6 weeks to achieve relief from obstruction (LVOT-G<30 mmHg) while maintaining left ventricular ejection fraction (LVEF) ≥50%, for 24 weeks. In this secondary analysis, remodelling response was assessed across five domains including: 1) left atrial volume index (LAVI) graded as normal (16-34 mL/m^2), mild (35-41 mL/m^2), moderate (42-48 mL/m^2), severe enlargement (>48 mL/m^2); 2) presence of left ventricular hypertrophy (LVH) with strain pattern on electrocardiogram (EKG) assessed by core lab, 3) Hyperdynamic (≥72) LVEF by core lab; 4)N-terminal brain natriuretic peptide (NT-proBNP) improvement of ≥50%, and; and 5) decrease of maximal wall thickness (MWT) ≥1.5 mm.

[2] = test system: patients with symptomatic oHCM; experiment: SEQUOIA-HCM cardiovascular magnetic resonance (CMR) substudy; format: in vivo, human
Text: A further exploratory objective of this trial was to evaluate the effect of aficamten on left ventricular mass, function, and structure by cardiac magnetic resonance (CMR) imaging, as determined by changes from baseline to Week 24 in CMR measurements of left ventricular (LV) mass index, LVEF, septal and free wall thickness, left […] volume index, LVESV, and LVEDV. Cardiac Magnetic Resonance. A CMR imaging sub-study assessed the effects of administration of aficamten dosing on cardiac morphology, function, and fibrosis in approximately 40 oHCM patients who were eligible and consented to participate. CMR was performed during screening period and Week 24. […] Effect of Aficamten on Cardiac Structure and Function in Patients with Obstructive Hypertrophic Cardiomyopathy. For some patients with HCM, adverse remodeling of cardiac structure and function occur over time and are associated with increased risk of adverse events, including heart failure, sudden death and atrial fibrillation. Eligible participants enrolled in SEQUOIA-HCM (the study of Example 8), were offered enrolment in the cardiovascular magnetic resonance (CMR) substudy with CMR performed at baseline and at Week 24. Image analysis was performed in a blinded fashion by a core laboratory.

[3] = CMR Cohort N = 57 (Aficamten N = 25), Baseline
[4] = CMR Cohort N = 57 (Aficamten N = 25), Week 24
[5] = CMR Measurements, CMR Cohort N = 57 (Aficamten N = 25), Baseline
[6] = CMR Measurements, CMR Cohort N = 57 (Aficamten N = 25), Week 24
[7] = CMR Measurements, CMR Cohort N = 57, vs placebo
[8] = Echo Measurements, CMR Cohort N = 57 (Aficamten N = 25), Baseline

## CCc1nc(-c2ccc3c(c2)CC[C@H]3NC(=O)c2cnn(C)c2)no1 [aficamten, (R)—N-(5-(5-ethyl-1,2,4-oxadiazol-3-yl)-2,3-dihydro-1H-inden-1-yl)-1-methyl-1H-pyrazole-4-carboxamide]
[1]; 142 aficamten treated patients
  patients with beneficial remodelling in at least one of five domains: 84%
[1]; aficamten
  patients with decrease by ≥50% in NT-proBNP: 81.7%
  patients with improvement in MWT (decrease ≥1.5 mm): 47.9%
  patients with resolution of hyperdynamic LVEF: 35.2%
  reduction in prevalence of LVH with strain pattern on EKG, patients: 19.0%
[1]; among patients with abnormal LAVI (>34 mL/m^2) at baseline, 44/94
  patients with improvement by one category in LAVI: 46.8%
[1]; vs placebo
  number needed to treat to achieve beneficial remodelling: 2.2
[2]; Baseline, N = 21
  LGE (% of LV mass) (CMR): 2.0 % of LV mass
  LGE Mass (CMR): 3.2 g
  Mitral Regurgitation Fraction (CMR): 24%
  Mitral Regurgitation Volume (CMR): 22 mL
  NT-proBNP, median: 708 pg/mL
  NYHA Class II, patients: 67%
  NYHA Class III, patients: 33%
[2]; Baseline, N = 21, mean ± SD
  Absolute myocyte mass index (CMR): 84 ± 25 g/m^2
  Echo LVOT Gradient at Rest: 55 ± 32 mm Hg
  Echo LVOT Gradient with Valsalva: 85 ± 45 mm Hg
  LA Volume Index (CMR): 68 ± 19 mL/m^2
  LV Ejection Fraction (CMR): 77.4 ± 5.6%
  LV End Diastolic Volume Index (CMR): 67 ± 15 mL/m^2
  LV End Systolic Volume Index (CMR): 15.3 ± 5.9 mL/m^2
  LV Extracellular Volume Fraction (CMR): 26.7 ± 2.7%
  LV Mass Index (CMR): 113 ± 33 g/m^2
  LV Maximal Wall Thickness (CMR): 19.3 ± 4.3 mm
  LV Native T1 (CMR): 1066 ± 121 ms
  LV extracellular volume mass index (CMR): 31 ± 10 %/g/m^2
  Peak oxygen consumption, pVO2: 20.1 ± 4.4 mL/kg/min
[2]; [3]
  NT-proBNP, median: 708 pg/mL
  Peak oxygen consumption, pVO2: 19.8 ± 4.7 mL/kg/min
[2]; [4]
  Improvement in NYHA by ≥1 FC, n (%): 15 (60.0) n (%)
  NT-proBNP, median: 81 pg/mL
  Peak oxygen consumption, pVO2: 21.0 ± 4.9 mL/kg/min
[2]; CMR Cohort N = 57, Week 24, vs placebo
  Improvement in NYHA by ≥1 FC, Treatment Effect, OR: OR 3.00
[2]; CMR Cohort N = 57, vs placebo
  NT-proBNP, Treatment Effect: -85 pg/mL
  Peak oxygen consumption, pVO2, Treatment Effect: 1.2 mL/kg/min
[2]; [5]
  LA Volume Index: 68 ± 19 mL/m^2
  LV Ejection Fraction: 77.4 ± 5.6%
  LV Mass Index: 113 ± 33 g/m^2
  LV Maximal Wall Thickness: 19.3 ± 4.3 mm
[2]; [6]
  LA Volume Index: 52 ± 14 mL/m^2
  LV Ejection Fraction: 73.8 ± 5.9%
  LV Mass Index: 103 ± 28 g/m^2
  LV Maximal Wall Thickness: 17.8 ± 4.5 mm
[2]; [7]
  LA Volume Index, Treatment Effect: −13 mL/m^2
  LV Ejection Fraction, Treatment Effect: −2.6%
  LV Mass Index, Treatment Effect: −15 g/m^2
  LV Maximal Wall Thickness, Treatment Effect: −2.1 mm
[2]; CMR substudy patients, Week 24
  NT-proBNP, change relative to placebo: −85%
  echocardiographic Valsalva LVOT-G, Δ least squares mean relative to placebo: −50 mm Hg
  echocardiographic resting LVOT-G, Δ least squares mean relative to placebo: −46 mm Hg
[2]; [8]
  LA Volume Index: 40 ± 11 mL/m^2
  LV Ejection Fraction: 74.3 ± 4.7%
  LV Mass Index: 126 ± 22 g/m2
  LV Maximal Wall Thickness: 20.6 ± 2.7 mm
  LVOT gradient at rest: 55 ± 30 mmHg
  LVOT gradient with Valsalva: 84 ± 42 mmHg
[2]; Echo Measurements, CMR Cohort N = 57 (Aficamten N = 25), Week 24
  LA Volume Index: 39 ± 10 mL/m^2
